Source: US6677466B1, “Method for stabilizing hydrogen peroxide” (DSM Fine Chemicals Austria NFG GmbH & Co KG, priority 1999, dated 2004)

Experiment: O2 evolution from RuO2.xH2O-catalysed decomposition of H2O2 with stabilizer
Format: physicochemical
Method: A 50% strength aqueous solution of H2O2 (304 mg; 4.46 mmol) was added to 454 mg (4.46 mmol) of methyl pyruvate and to 535 mg (4.46 mmol) of glyoxylic methyl ester methyl hemiacetal, respectively. In the case of methyl pyruvate, a marked evolution of heat was discovered during the addition. After one hour, the H2O2/α-keto ester mixture was mixed with 1 ml of solvent and added to a suspension of 2.5 mg of RuO2.xH2O catalyst (Aldrich) in 4 ml of solvent. The suspension was introduced into a 50 ml flask which was maintained at room temperature in a water bath.
As a comparison, a suspension of 2.5 mg of RuO2.xH2O catalyst (Aldrich) in 4 ml of solvent was combined with a 50% strength aqueous solution of H2O2 (304 mg; 4.46 mmol) and 1 ml of solvent without stabilizer.
The amount of oxygen which […] the decomposition of the hydrogen peroxide was determined as a function of time using a Brooks meter, which permitted measurement of the gas flow and of the total amount of evolved gas.
The amount of oxygen is defined here as % of the maximum amount to be calculated on the basis of stoichiometry.

COC(=O)C(C)=O [methyl pyruvate]
O2 evolution V(O2) (Vmax(O2)*100%) (solv. acetic acid, t 1 min): 0%
O2 evolution V(O2) (Vmax(O2)*100%) (solv. acetic acid, t 2 min): 0%
O2 evolution V(O2) (Vmax(O2)*100%) (solv. acetic acid, t 5 min): 2%
O2 evolution V(O2) (Vmax(O2)*100%) (solv. acetic acid, t 10 min): 4%
O2 evolution V(O2) (Vmax(O2)*100%) (solv. acetic acid, t 15 min): 4%
O2 evolution V(O2) (Vmax(O2)*100%) (solv. acetic acid, t 20 min): 4%
O2 evolution V(O2) (Vmax(O2)*100%) (solv. acetic acid, t 25 min): 4%
O2 evolution V(O2) (Vmax(O2)*100%) (solv. acetic acid, t 30 min): 4%
O2 evolution V(O2) (Vmax(O2)*100%) (solv. acetic acid, t 35 min): 4%
O2 evolution V(O2) (Vmax(O2)*100%) (solv. acetic acid, t 40 min): 4%
O2 evolution V(O2) (Vmax(O2)*100%) (solv. acetone, t 1 min): 10%
O2 evolution V(O2) (Vmax(O2)*100%) (solv. acetone, t 2 min): 20%
O2 evolution V(O2) (Vmax(O2)*100%) (solv. acetone, t 5 min): 29%
O2 evolution V(O2) (Vmax(O2)*100%) (solv. acetone, t 10 min): 29%
O2 evolution V(O2) (Vmax(O2)*100%) (solv. acetone, t 15 min): 29%
O2 evolution V(O2) (Vmax(O2)*100%) (solv. acetone, t 20 min): 29%
O2 evolution V(O2) (Vmax(O2)*100%) (solv. acetone, t 25 min): 29%
O2 evolution V(O2) (Vmax(O2)*100%) (solv. acetone, t 30 min): 29%
O2 evolution V(O2) (Vmax(O2)*100%) (solv. acetone, t 35 min): 29%
O2 evolution V(O2) (Vmax(O2)*100%) (solv. acetone, t 40 min): 29%
O2 evolution V(O2) (Vmax(O2)*100%) (solv. acetonitrile, t 1 min): 9%
O2 evolution V(O2) (Vmax(O2)*100%) (solv. acetonitrile, t 2 min): 18%
O2 evolution V(O2) (Vmax(O2)*100%) (solv. acetonitrile, t 5 min): 30%
O2 evolution V(O2) (Vmax(O2)*100%) (solv. acetonitrile, t 10 min): 40%
O2 evolution V(O2) (Vmax(O2)*100%) (solv. acetonitrile, t 15 min): 47%
O2 evolution V(O2) (Vmax(O2)*100%) (solv. acetonitrile, t 20 min): 51%
O2 evolution V(O2) (Vmax(O2)*100%) (solv. acetonitrile, t 25 min): 53%
O2 evolution V(O2) (Vmax(O2)*100%) (solv. acetonitrile, t 30 min): 53%
O2 evolution V(O2) (Vmax(O2)*100%) (solv. acetonitrile, t 35 min): 53%
O2 evolution V(O2) (Vmax(O2)*100%) (solv. acetonitrile, t 40 min): 53%
O2 evolution V(O2) (Vmax(O2)*100%) (solv. ethyl acetate, t 1 min): 8%
O2 evolution V(O2) (Vmax(O2)*100%) (solv. ethyl acetate, t 2 min): 12%
O2 evolution V(O2) (Vmax(O2)*100%) (solv. ethyl acetate, t 5 min): 20%
O2 evolution V(O2) (Vmax(O2)*100%) (solv. ethyl acetate, t 10 min): 29%
O2 evolution V(O2) (Vmax(O2)*100%) (solv. ethyl acetate, t 15 min): 32%
O2 evolution V(O2) (Vmax(O2)*100%) (solv. ethyl acetate, t 20 min): 37%
O2 evolution V(O2) (Vmax(O2)*100%) (solv. ethyl acetate, t 25 min): 40%
O2 evolution V(O2) (Vmax(O2)*100%) (solv. ethyl acetate, t 30 min): 42%
O2 evolution V(O2) (Vmax(O2)*100%) (solv. ethyl acetate, t 35 min): 47%
O2 evolution V(O2) (Vmax(O2)*100%) (solv. ethyl acetate, t 40 min): 50%
O2 evolution V(O2) (Vmax(O2)*100%) (solv. methanol, t 1 min): 10%
O2 evolution V(O2) (Vmax(O2)*100%) (solv. methanol, t 2 min): 19%
O2 evolution V(O2) (Vmax(O2)*100%) (solv. methanol, t 5 min): 32%
O2 evolution V(O2) (Vmax(O2)*100%) (solv. methanol, t 10 min): 43%
O2 evolution V(O2) (Vmax(O2)*100%) (solv. methanol, t 15 min): 49%
O2 evolution V(O2) (Vmax(O2)*100%) (solv. methanol, t 20 min): 52%
O2 evolution V(O2) (Vmax(O2)*100%) (solv. methanol, t 25 min): 53%
O2 evolution V(O2) (Vmax(O2)*100%) (solv. methanol, t 30 min): 53%
O2 evolution V(O2) (Vmax(O2)*100%) (solv. methanol, t 35 min): 53%
O2 evolution V(O2) (Vmax(O2)*100%) (solv. methanol, t 40 min): 53%
O2 evolution V(O2) (Vmax(O2)*100%) (solv. t-butanol, t 1 min): 2%
O2 evolution V(O2) (Vmax(O2)*100%) (solv. t-butanol, t 2 min): 5%
O2 evolution V(O2) (Vmax(O2)*100%) (solv. t-butanol, t 5 min): 10%
O2 evolution V(O2) (Vmax(O2)*100%) (solv. t-butanol, t 10 min): 18%
O2 evolution V(O2) (Vmax(O2)*100%) (solv. t-butanol, t 15 min): 21%
O2 evolution V(O2) (Vmax(O2)*100%) (solv. t-butanol, t 20 min): 23%
O2 evolution V(O2) (Vmax(O2)*100%) (solv. t-butanol, t 25 min): 25%
O2 evolution V(O2) (Vmax(O2)*100%) (solv. t-butanol, t 30 min): 25%
O2 evolution V(O2) (Vmax(O2)*100%) (solv. t-butanol, t 35 min): 25%
O2 evolution V(O2) (Vmax(O2)*100%) (solv. t-butanol, t 40 min): 25%
O2 evolution V(O2) (Vmax(O2)*100%) (solv. water, t 1 min): 9%
O2 evolution V(O2) (Vmax(O2)*100%) (solv. water, t 2 min): 17%
O2 evolution V(O2) (Vmax(O2)*100%) (solv. water, t 5 min): 30%
O2 evolution V(O2) (Vmax(O2)*100%) (solv. water, t 10 min): 40%
O2 evolution V(O2) (Vmax(O2)*100%) (solv. water, t 15 min): 48%
O2 evolution V(O2) (Vmax(O2)*100%) (solv. water, t 20 min): 51%
O2 evolution V(O2) (Vmax(O2)*100%) (solv. water, t 25 min): 55%
O2 evolution V(O2) (Vmax(O2)*100%) (solv. water, t 30 min): 55%
O2 evolution V(O2) (Vmax(O2)*100%) (solv. water, t 35 min): 55%
O2 evolution V(O2) (Vmax(O2)*100%) (solv. water, t 40 min): 55%
